Columns and labels:
Barley [1] = experiment: Whole plant screen for plant growth regulator activity, barley (BR); assay type: in vivo, Barley (Atem); details: BR, 4000 ppm (4 kg/ha), visual score after 2-6 weeks; for T = Tillering or side shooting: * = decrease in tillering
Outline: (§1)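 Foliar spray, 4000 ppm (4 kg/ha, 1000 l/ha), tracksprayer. Glasshouse, 16 h light; MZ/RC 25/22° C., WW/BR 16/13° C. day/night. Visual morphological scoring at 2-6 wk vs formulation blank.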

Puccinia recondita = experiment: Foliar fungal disease control, Puccinia recondita (wheat); assay type: in vivo; details: 100 ppm spray plus root drench (approximately 40 ppm a.i/dry soil), one or two days before inoculation
Plasmopara viticola = experiment: Foliar fungal disease control, Plasmopara viticola (vine); assay type: in vivo; details: 100 ppm spray plus root drench (approximately 40 ppm a.i/dry soil), one or two days before inoculation
Pyricularia oryzae = assay type: in vivo; details: 100 ppm spray plus root drench (approximately 40 ppm a.i/dry soil), one or two days before inoculation
Wheat = experiment: Whole plant screen for plant growth regulator activity, wheat (WW); assay type: in vivo, Wheat (Timmo); details: WW, 4000 ppm (4 kg/ha), visual score after 2-6 weeks; for T = Tillering or side shooting: * = decrease in tillering
Outline: as §1

Phytophthora infestans = assay type: in vivo; details: 100 ppm spray plus root drench (approximately 40 ppm a.i/dry soil), one or two days before inoculation
Tomato = experiment: Whole plant screen for plant growth regulator activity, tomato (TO); assay type: in vivo, Tomato (Ailsa Craig); details: 4000 ppm (4 kg/ha), visual score after 2-6 weeks
Outline: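 Plant growth regulation scored visually 2–6 weeks post-spray, relative to formulation-blank controls, with growth at 25/22 °C day/night under 16 h light. Treatment: 4000 ppm (4 kg/ha, 1000 l/ha volume) track-sprayed onto Ailsa Craig tomato at the 2–2½ leaf stage, grown singly in 3-inch peat pots.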

Cercospora arachidicola = experiment: Foliar fungal disease control, Cercospora arachidicola (peanut); assay type: in vivo; details: 100 ppm spray plus root drench (approximately 40 ppm a.i/dry soil), one or two days before inoculation
Erysiphe graminis = experiment: Foliar fungal disease control, Erysiphe graminis (barley); assay type: in vivo; details: 100 ppm spray plus root drench (approximately 40 ppm a.i/dry soil); inoculated 24 hours before treatment
Apple [2] = experiment: Modified Intermediate Retardant Test, apples; assay type: in vivo, Apple (Red Delicious); details: 2000 g/ha, overall spray, height to apex 21 days after treatment
Source text: (§2) The general Intermediate Retardant Test described in Example 62 was modified by the addition of Sunflowers (SR) and the variety and growth stages at spray are outlined in Table XIII. Apart from the changes indicated, growing conditions for barley, rice and apples were as in Example 62 and growing conditions for Sunflower were as for apples. Test compounds were applied to barley, rice and apples as whole plant (overall) sprays at a rate of 2000 g/ha. Test compounds were applied to sunflowers separately as a foliar only spray at a rate of 2000 g/ha and as a root drench at a rate of 2000 g/ha.
(§3) Barley and rice were assessed for height to topmost ligule 21 days after treatment; apples were assessed for height to apex at 21 days after treatment; and sunflowers were assessed for height to apex at 14 days after treatment. The results are expressed as percentage reduction in height compared with the formulation blank in Table XIV.

Rice [3] = experiment: Modified Intermediate Retardant Test, rice; assay type: in vivo, Rice (Ishikari); details: 2000 g/ha, overall spray, height to topmost ligule 21 days after treatment
Source text: as §2, §3

Barley [4] = experiment: Modified Intermediate Retardant Test, barley; assay type: in vivo, Barley (Atem); details: 2000 g/ha, overall spray, height to topmost ligule 21 days after treatment
Source text: as §2, §3

Sunflower = experiment: Modified Intermediate Retardant Test, sunflower; assay type: in vivo; details: 2000 g/ha, height to apex 14 days after treatment; for […] IN HEIGHT, SR (Foliar): foliar only spray; for […] IN HEIGHT, SR (Root): root drench
Source text: as §2, §3

Apple [5] = experiment: Whole plant screen for plant growth regulator activity, apple (AP); assay type: in vivo, Apple (Red Delicious); details: 4000 ppm (4 kg/ha), visual score after 2-6 weeks
Outline: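 Compounds sprayed at 4000 ppm (4 kg/ha in 1000 l/ha) by tracksprayer at a defined leaf stage. Plants then grown in glasshouse at 25° C. day/22° C. night (wheat and barley 16° C. day/13° C. night), 16 hour photoperiod. Morphology visually assessed after 2-6 weeks against formulation blanks.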

Rice [6] = experiment: Intermediate Retardant Test, rice; assay type: in vivo, Rice (Ishikari); details: Oryza sativa, 672 h, overall spray, approximately 28 days, Table VI, read-out: Percentage Reduction in Height of Rice (Compared to formulation blank)
Outline: (§4)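 Overall spray at 500 and 2000 ppm (0.5 and 2 kg/ha^-1 at 1000 l/ha^-1); for apples, a 2000 ppm foliar-only spray was also compared with a 2000 ppm root drench. Rice grew in flooded 4" paddy pots, barley and apples in 4" pots. About 28 days after treatment, height (to top-most ligule, or to apex for apples) was recorded as % reduction versus formulation blank.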

Maize = experiment: Whole plant screen for plant growth regulator activity, maize (MZ); assay type: in vivo, Maize (Earliking); details: 4000 ppm (4 kg/ha), visual score after 2-6 weeks
Protocol: Compounds 1 to 3 in Table 1 were tested for plant growth regulator activity against five species for various growth effects relevant to plant growth regulation.
The plant species used in this screen are presented in Table II with the leaf stage at which they were sprayed. Each chemical was applied at 4000 ppm (4 kg/ha in a 1000 l/ha field volume) using a tracksprayer and a SS8004E (Teejet) nozzle.
After spray the plants were grown in a glasshouse with 25° C. day/22° C. night temperatures and supplementary lighting was supplied when necessary (from mercury vapour lamps), to provide a 16 hour photoperiod. The exception to this were the temperate cereals, wheat and barley which were grown in 16° C. day/13° C. night temperatures.
After 2-6 weeks in the glasshouse, depending on the time of year, the plants were visually assessed for morphological characteristics. Formulation blanks were used as controls to assess the plants. […]

Apples = experiment: Intermediate Retardant Test, apples, foliar spray compared with root drench; assay type: in vivo, Apples (Red Delicious); details: 672 h, approximately 28 days, Table IX, read-out: Percentage Reduction in Height of Apples (Compared to formulation blank)
Outline: as §4

Spring Barley = experiment: Intermediate Retardant Test, spring barley; assay type: in vivo, Spring Barley (Atem/kym); details: Hordeum vulgare, 672 h, overall spray, approximately 28 days, Table VII, read-out: Percentage Reduction in Height of Spring Barley (Compared to formulation blank)
Outline: as §4

Rice [7] = experiment: Whole plant screen for plant growth regulator activity, rice (RC); assay type: in vivo, Rice (Ishikari); details: 4000 ppm (4 kg/ha), visual score after 2-6 weeks
Outline: as §1

Row | SMILES | T = Tillering or side shooting (Barley [1]) | disease control, PUCCINIA RECONDITA (WHEAT) (Puccinia recondita) | disease control, P[…] (RICE) (Pyricularia oryzae) | G = Greening effect (Wheat) | I = Interligular or internodal length reduction (Wheat) | R = Retardation (Wheat) | T = Tillering or side shooting (Wheat) | disease control, PH[…] (TOMATO) (Phytophthora infestans) | G = Greening effect (Tomato) | I = Interligular or internodal length reduction (Tomato) | R = Retardation (Tomato) | disease control, CERCOSPORA ARACHIDICOLA (PEANUT) (Cercospora arachidicola) | […] IN HEIGHT, AP (Apple [2]) [%] | […] IN HEIGHT, RC (Rice [3]) [%] | G = Greening effect (Barley [1]) | I = Interligular or internodal length reduction (Barley [1]) | R = Retardation (Barley [1]) | […] IN HEIGHT, BR (Barley [4]) [%] | […] IN HEIGHT, SR (Foliar) (Sunflower) [%] | […] IN HEIGHT, SR (Root) (Sunflower) [%] | also measured
1 | CC(C)(C)/C=C/C(O)(c1cncnc1)C1(C)CC1 (stereo not shown) [Compound 55] | 3 (61-100%) | 4 | 0 (60-100% of disease on untreated plants) | 1 (10-30%) | 2 (31-60%) | 2 (31-60%) | 1 (10-30%) | 0 (60-100% of disease on untreated plants) | 2 (31-60%) | 2 (31-60%) | 2 (31-60%) | 4 | – | – | – | – | – | – | – | – | disease control, PLASMOPARA VITICOLA (VINE) (Plasmopara viticola): 0 (60-100% of disease on untreated plants); disease control, ERYSIPHE GRAMINIS (BARLEY) (Erysiphe graminis): 4
2 | CCC/C=C\C(O)(c1cncnc1)C(C)C (stereo not shown) [Compound 25, 2-methyl-1-(pent-1-ene)-1-(pyrimidin-5-yl)-propan-1-ol] | 1* | – | – | 2 (31-60%) | 1 (10-30%) | 1 (10-30%) | – | – | 2 (31-60%) | 1 (10-30%) | 1 (10-30%) | – | 31 | 55 | 3 (61-100%) | 3 (61-100%) | 3 (61-100%) | 52 | 0 | 54 | –
3 | CCCCCC#CC(O)(c1cncnc1)C(C)(C)C (stereo not shown) [Compound 32] | 1 (10-30%) | – | – | 1 (10-30%) | 3 (61-100%) | 2 (31-60%) | – | – | 2 (31-60%) | 1 (10-30%) | 2 (31-60%) | – | 30 | 46 | 2 (31-60%) | 3 (61-100%) | 3 (61-100%) | 17 | 13 | 37 | –
4 | CC(C)CCCC(O)(c1cncnc1)C(C)C (stereo not shown) [Compound 7, 2-Methyl-1-(4-methylpentyl)-1-(pyrimidin-5-yl)propan-1-ol] | 1 (10-30%) | 0 (60-100% of disease on untreated plants) | 0 (60-100% of disease on untreated plants) | 2 (31-60%) | 3 (61-100%) | 3 (61-100%) | 3 (61-100%) | 0 (60-100% of disease on untreated plants) | 2 (31-60%) | 3 (61-100%) | 3 (61-100%) | 0 (60-100% of disease on untreated plants) | – | – | 2 (31-60%) | 2 (31-60%) | 2 (31-60%) | – | – | – | G = Greening effect (Apple [5]): 1 (10-30%); I = Interligular or internodal length reduction (Apple [5]): 2 (31-60%); R = Retardation (Apple [5]): 3 (61-100%); Percent reduction in rice height vs formulation blank at 500 ppm (Rice [6]; 500 ppm): 31%; Percent reduction in rice height vs formulation blank at 2000 ppm (Rice [6]; 2000 ppm): 45%; G = Greening effect (Maize): 1 (10-30%); I = Interligular or internodal length reduction (Maize): 2 (31-60%); R = Retardation (Maize): 2 (31-60%); percent reduction in plant height at 2000 ppm (Apples; 2000 ppm (Foliar)): 12%; percent reduction in plant height at 2000 µg/mL (Apples; soil, 2000 pmm (Root), root drench): 45%; percent reduction in plant height at 500 ppm (Spring Barley; 500 ppm): 23%; percent reduction in plant height at 2000 ppm (Spring Barley; 2000 ppm): 47%; G = Greening effect (Rice [7]): 1 (10-30%); I = Interligular or internodal length reduction (Rice [7]): 2 (31-60%); R = Retardation (Rice [7]): 2 (31-60%); disease control, ERYSIPHE GRAMINIS (BARLEY) (Erysiphe graminis): 4
5 | CCCCCCC#CC(O)(c1cncnc1)C(C)C (stereo not shown) [Compound 24] | 2* | – | – | 2 (31-60%) | – | 1 (10-30%) | – | – | 2 (31-60%) | – | 1 (10-30%) | – | 37 | 17 | – | 2 (31-60%) | 2 (31-60%) | 6 | 0 | 3 | –
6 | CCCCCC#CC(O)(c1cncnc1)C(C)C (stereo not shown) [Compound 23] | 1 (10-30%) | – | – | 2 (31-60%) | – | 2 (31-60%) | – | – | 2 (31-60%) | – | 2 (31-60%) | – | 50 | 54 | 2 (31-60%) | 3 (61-100%) | 3 (61-100%) | 29 | 2 | 45 | –

From patent US4875922A, “Pyrimidine derivatives” (Imperial Chemical Industries PLC, priority 1986, dated 1989)
